Key:
[1] = Tested for the cytotoxicity against HIV-1 in human T-cell line; type: cell-based; details: read-out: TD50 (the source's name)
[2] = system: T-cell line; test: Tested for its effective dose required to inhibit the replication of HIV-1 in human T-cell line; type: functional; details: read-out: ED50 (the source's name)

With `COC(=O)C(NP(=O)(OCC1OC(n2cc(C)c(=O)[nH]c2=O)CC1F)OCC(Cl)(Cl)Cl)C(C)C` (stereo not given) the CC50 [1] was > 100 µM and the EC50 [2] was 0.3 µM.
In the case of `COC(=O)C(C)NP(=O)(OCC1OC(n2cc(C)c(=O)[nH]c2=O)CC1F)OCC(Cl)(Cl)Cl` (stereo not given), the CC50 [1] is reported as > 100 µM and the EC50 [2] is reported as 0.3 µM.
For `COC(=O)C(Cc1ccccc1)NP(=O)(NC(Cc1ccccc1)C(=O)OC)OCC1OC(n2cc(C)c(=O)[nH]c2=O)CC1F` (stereo not given), the CC50 [1] was > 100 µM and the EC50 [2] was 5 µM.
Compound `Cc1cn(C2CC(F)C(COP(=O)(OCC(Cl)(Cl)Cl)OCC(Cl)(Cl)Cl)O2)c(=O)[nH]c1=O` (stereo not given) has a CC50 [1] of 100 µM and an EC50 [2] of 0.01 µM.
In the case of `Cc1cn([C@H]2C[C@H](F)[C@@H](CO)O2)c(=O)[nH]c1=O` [ALOVUDINE], the CC50 [1] is reported as 100 µM and the EC50 [2] is reported as 0.005 µM.
